Assay results from article PMC11288129, “Diversely evolved xibalbin variants from remipede venom inhibit potassium channels and activate PKA-II and Erk1/2 signaling” (BMC Biology, 2024).
Marks after values point to notes of the source that are not given here. Positions of bridges follow the written chain, without caps; N, C: chain ends. No end group written: not given here.

Assays:
hNav1.5 = assay: TEVC current-voltage relationship (Vhalf), Nav1.5; assay type: cell-based, human; set-up: Vhalf, toxin inactivation, Nav1.5 / Vhalf, toxin activation, Nav1.5: unit not given here; details: for Vhalf, toxin activation, Nav1.5 / Vhalf, toxin inactivation, Nav1.5: 1 µM
From the text: (§1) For the expression of Kv channels rat Kv1.1 (GenBank accession number: NM_173095 [88, 89]), rKv1.2 (NM_012970 [90, 91]), human Kv1.3 (NM_002232 [92, 93]), rKv1.4 (NM_012971 [94, 95]), rKv1.6 (NM_023954 [96, 97]), hKv2.1 (NM_004975 [98, 99]), hKv3.1 (NM_004976 [100, 101]), rKv4.2 (NM_031739 [102, 103]), hKv10.1 (NM_172362 [104, 105]), hERG1 [Kv11.1, (NM_000238 [106, 107])], and Shaker IR [from Drosophila melanogaster, (NM_167595 [108, 109])], Nav channels [rNav1.2 (NM_012647 [42, 110]), rNav1.4 (NM_013178 [111, 112]), hNav1.5 (NM_198056 [113, 114]), mNav1.6 (NM_001077499 [115, 116]), BgNav [from Blattella germanica, (DQ466887 [117, 118])] and the auxiliary subunits rβ1 (NM_001271045 [119, 120]), hβ1 (NM_001037 [121, 122]), and TipE [from D. melanogaster, (NM_079196 [109, 123])], and Cav channels hCav3.1 [124, 125], hCav3.2 [126, 127], and hCav3.3 [128, 129] in Xenopus oocytes, the linearized plasmids were transcribed using the T7 or SP6 mMESSAGEmMACHINE transcription kit (Ambion, Austin, TX, USA). Mature female animals were purchased from Nasco (Fort Atkinson, USA) and were housed in the Aquatic Facility (KU Leuven) in compliance with the regulations of the European Union (EU) concerning the welfare of laboratory animals as declared in Directive 2010/63/EU. The use of X. laevis oocytes was approved by the Animal Ethics Committee of the KU Leuven with the license number P186/2019. Stage V–VI oocytes were collected from anesthetized female X. laevis frog as previously described, with the frogs anesthetized by placement in 0.1% tricaine solution (amino benzoic acid ethyl ester; Merck, USA). Oocyte microinjection was performed using a microinjector (Drummond Scientifc®, USA), with a programmed cRNA injection volume of 4—50 nL, depending on the channel subtype. The oocytes were incubated in ND96 solution (96 mM NaCl, 2 mM KCl, 1.8 mM CaCl2, 2 mM MgCl2, and 5 mM HEPES, pH 7.4), supplemented with 50 mg/l gentamicin sulfate.
(§2) Electrophysiological measurements were performed at room temperature (18–22 °C) using the two-electrode voltage clamp (TEVC) technique. Data were obtained using a GeneClamp 500 amplifier (Axon Instruments, USA), and Clampex9 software (Axon Instruments), responsible for data acquisition and storage. Glass micropipettes were produced using glass capillaries (borosilicate WPI 1B120-6) and drawn in a WPI (World Precision Instruments, USA) manual stretcher. The bath and perfusion solutions were either the previously described ND96 (Nav and Kv channels) or calcium-free ND96 supplemented with 10 mM BaCl2 (Cav channels).
(§3) Whole-cell currents of oocytes were recorded 1 to 3 days after injection. Current and voltage electrodes were filled with 3 M KCl and their resistance was adjusted from 0.7 to 2.0 MΩ. Currents were sampled at 20 kHz (Nav channels) and 10 kHz (Kv and Cav channels) and filtered using a four-pole Bessel low-pass Bessel filter, at 1 kHz for sodium, and […] for potassium and calcium, except for the hERG ion channel, in which the currents were filtered at 1 kHz. Leak subtraction was performed using a -P/4 protocol. Kv1.x currents were evoked by 500 ms depolarizations to 0 mV followed by a 500-ms pulse to − 50 mV, from a holding potential of − 90 mV. Kv2.1, Kv3.1, and Kv4.2 currents were elicited by 500 ms pulses to + 20 mV from a holding potential of − 90 mV. Current traces of Kv10.1 were elicited by 2 s depolarization to 0 mV, from a holding potential of − 90 mV. Current traces of hERG1 channel were elicited by applying a + 40 mV prepulse for 2 s followed by a step of − 120 mV for 2 s. Sodium current traces were evoked by a 100 ms depolarization to 0 mV, from a holding potential of − 90 mV. The current–voltage (IV) relationships were determined by 100-ms step depolarizations between − 90 and + 40 mV, using 5 mV increments. […]

BgNav = assay: TEVC inhibition, BgNav; assay type: cell-based, Blattella germanica; set-up: Inhibition data, BgNav: unit not given here; details: 1 µM
From the text: as §1, §2, §3

mNav1.6 [1] = assay: TEVC current-voltage relationship (Vhalf), Nav1.6; assay type: cell-based, mouse; set-up: Vhalf, toxin inactivation, Nav1.6 / Vhalf, toxin activation, Nav1.6: unit not given here; details: for Vhalf activation shift, Nav1.6: 1 µM versus control (ND96); for Vhalf, toxin activation, Nav1.6 / Vhalf, toxin inactivation, Nav1.6: 1 µM
From the text: as §1, §2, §3

Shaker IR = assay: TEVC inhibition, Shaker IR; assay type: cell-based, Drosophila melanogaster; set-up: unit not given here; details: 1 µM
From the text: as §1, §2, §3

hCav3.2 = assay: TEVC inhibition, Cav3.2; assay type: cell-based, human; set-up: unit not given here; details: 1 µM
From the text: as §1, §2, §3

hKv2.1 = assay: TEVC inhibition, Kv2.1; assay type: cell-based, human; set-up: unit not given here; details: 1 µM
From the text: as §1, §2, §3

mNav1.6 [2] = assay: TEVC inhibition, Nav1.6; assay type: cell-based, mouse; details: 1 µM, Xenopus oocytes, ND96, 18–22 °C, mean ± SEM, n ≥ 3
From the text: For the expression of Kv channels rat Kv1.1 (GenBank accession number: NM_173095 [88, 89]), rKv1.2 (NM_012970 [90, 91]), human Kv1.3 (NM_002232 [92, 93]), rKv1.4 (NM_012971 [94, 95]), rKv1.6 (NM_023954 [96, 97]), hKv2.1 (NM_004975 [98, 99]), hKv3.1 (NM_004976 [100, 101]), rKv4.2 (NM_031739 [102, 103]), hKv10.1 (NM_172362 [104, 105]), hERG1 [Kv11.1, (NM_000238 [106, 107])], and Shaker IR [from Drosophila melanogaster, (NM_167595 [108, 109])], Nav channels [rNav1.2 (NM_012647 [42, 110]), rNav1.4 (NM_013178 [111, 112]), hNav1.5 (NM_198056 [113, 114]), mNav1.6 (NM_001077499 [115, 116]), BgNav [from Blattella germanica, (DQ466887 [117, 118])] and the auxiliary subunits rβ1 (NM_001271045 [119, 120]), hβ1 (NM_001037 [121, 122]), and TipE [from D. melanogaster, (NM_079196 [109, 123])], and Cav channels hCav3.1 [124, 125], hCav3.2 [126, 127], and hCav3.3 [128, 129] in Xenopus oocytes, the linearized plasmids were transcribed using the T7 or SP6 mMESSAGEmMACHINE transcription kit (Ambion, Austin, TX, USA). […]
Whole-cell currents of oocytes were recorded 1 to 3 days after injection. […] The current–voltage (IV) relationships were determined by 100-ms step depolarizations between − 90 and + 40 mV, using 5 mV increments. […]

rKv4.2 = assay: TEVC inhibition, Kv4.2; assay type: cell-based, rat; set-up: unit not given here; details: 1 µM
From the text: as §1, §2, §3

Row | Sequence | Vhalf, toxin activation, Nav1.5 (hNav1.5; replicate 1) | Vhalf, toxin inactivation, Nav1.5 (hNav1.5; replicate 1) | Vhalf, toxin activation, Nav1.5 (hNav1.5; replicate 2) | Vhalf, toxin inactivation, Nav1.5 (hNav1.5; replicate 2) | Vhalf, toxin activation, Nav1.5 (hNav1.5; replicate 3) | Vhalf, toxin inactivation, Nav1.5 (hNav1.5; replicate 3) | inhibition of BgNav (BgNav) | Inhibition data, BgNav (BgNav; replicate 1) | Inhibition data, BgNav (BgNav; replicate 2) | Inhibition data, BgNav (BgNav; replicate 3) | Inhibition data, BgNav (BgNav; replicate 4) | Vhalf activation shift, Nav1.6 (mNav1.6 [1]) [mV] | Vhalf, toxin activation, Nav1.6 (mNav1.6 [1]; replicate 1) | Vhalf, toxin inactivation, Nav1.6 (mNav1.6 [1]; replicate 1) | Vhalf, toxin activation, Nav1.6 (mNav1.6 [1]; replicate 2) | Vhalf, toxin inactivation, Nav1.6 (mNav1.6 [1]; replicate 2) | Vhalf, toxin activation, Nav1.6 (mNav1.6 [1]; replicate 3) | Vhalf, toxin inactivation, Nav1.6 (mNav1.6 [1]; replicate 3) | Vhalf, toxin activation, Nav1.6 (mNav1.6 [1]; replicate 4) | Vhalf, toxin inactivation, Nav1.6 (mNav1.6 [1]; replicate 4) | other results
1 | KRSCIRRFGRCDHRPNDCCYNSSCRCNLWGSNCRCQRMGLFQKWGK (disulfide 4-19, 11-24, 18-35, 26-33) [xib13] | -22.7699 | -59.4076 | -23.9735 | -59.2524 | -25.0967 | -59.4209 | targeted | 51.7 | 40.6 | 30.9 | 44.2 | 0.5 | -22.599 | -56.1011 | -28.3204 | -61.4261 | -27.6893 | -56.3883 | -20.1785 | -49.5801 | Vhalf activation shift, Nav1.5 (hNav1.5; 1 µM versus control (ND96)): 5.9*** mV; Inhibition data, Shaker (Shaker IR; replicate 1): 0.0; Inhibition data, Shaker (Shaker IR; replicate 2): 0.0; Inhibition data, Shaker (Shaker IR; replicate 3): 0.0; Inhibition data, Shaker (Shaker IR; replicate 4): 0.0; Inhibition data, Cav3.2 (hCav3.2; replicate 1): 0.0; Inhibition data, Cav3.2 (hCav3.2; replicate 2): 0.0; Inhibition data, Cav3.2 (hCav3.2; replicate 3): 0.0; Inhibition data, Cav3.2 (hCav3.2; replicate 4): 0.0; Inhibition data, Kv2.1 (hKv2.1; replicate 1): 0.0; Inhibition data, Kv2.1 (hKv2.1; replicate 2): 0.0; Inhibition data, Kv2.1 (hKv2.1; replicate 3): 0.0; Inhibition data, Kv2.1 (hKv2.1; replicate 4): 0.0; inhibition of Nav1.6 (mNav1.6 [2]): 10.7 ± 0.9%; Inhibition data, Kv4.2 (rKv4.2; replicate 1): 0.0; Inhibition data, Kv4.2 (rKv4.2; replicate 2): 0.0; Inhibition data, Kv4.2 (rKv4.2; replicate 3): 0.0; Inhibition data, Kv4.2 (rKv4.2; replicate 4): 0.0
2 | RLFCIRHHKYCGHRPKRCCSGLFCRCNTFGTNCRCQSKGALGKLI (disulfide 4-19, 11-24, 18-35, 26-33) [xib1] | -27.2261 | -60.2865 | -20.8548 | -53.6522 | -24.2578 | -54.899 | targeted | 10.1 | 7.7 | 7.6 | 7.6 | 1.9 | -19.6324 | -54.1984 | -25.3795 | -54.8159 | -25.7195 | -56.7966 | -23.7149 | -53.558 | Vhalf inactivation shift, Nav1.5 (hNav1.5; 1 µM versus control (ND96)): 1.5 mV; Vhalf, toxin activation, Nav1.5 (hNav1.5; replicate 4): -22.0356; Vhalf, toxin inactivation, Nav1.5 (hNav1.5; replicate 4): -51.823; Inhibition data, Shaker (Shaker IR; replicate 1): 0.0; Inhibition data, Shaker (Shaker IR; replicate 2): 0.0; Inhibition data, Shaker (Shaker IR; replicate 3): 0.0; Inhibition data, Shaker (Shaker IR; replicate 4): 0.0; Inhibition data, Cav3.2 (hCav3.2; replicate 1): 0.0; Inhibition data, Cav3.2 (hCav3.2; replicate 2): 0.0; Inhibition data, Cav3.2 (hCav3.2; replicate 3): 0.0; Inhibition data, Cav3.2 (hCav3.2; replicate 4): 0.0; Inhibition data, Kv2.1 (hKv2.1; replicate 1): 0.0; Inhibition data, Kv2.1 (hKv2.1; replicate 2): 0.0; Inhibition data, Kv2.1 (hKv2.1; replicate 3): 0.0; Inhibition data, Kv2.1 (hKv2.1; replicate 4): 0.0; inhibition of Nav1.6 (mNav1.6 [2]): 5.7 ± 1.2%; Inhibition data, Kv4.2 (rKv4.2; replicate 1): 0.0; Inhibition data, Kv4.2 (rKv4.2; replicate 2): 0.0; Inhibition data, Kv4.2 (rKv4.2; replicate 3): 0.0; Inhibition data, Kv4.2 (rKv4.2; replicate 4): 0.0
